Laboratory results from patent US10280169B2, “Biaryl bruton's tyrosine kinase inhibitors” (BIOGEN MA INC., priority 2013, dated 2019).

biological target: T1, BTK (Homo sapiens, UniProt Q06187); experiment: In vitro BTK kinase assay: BTK-POLYGAT-LS assay; type: biochemical; settings: 10 uM ATP, read-out: IC50 (10 uMATP)
T1 construct: purchased Upstate 14-552
T1 sequence (Q06187 whole entry): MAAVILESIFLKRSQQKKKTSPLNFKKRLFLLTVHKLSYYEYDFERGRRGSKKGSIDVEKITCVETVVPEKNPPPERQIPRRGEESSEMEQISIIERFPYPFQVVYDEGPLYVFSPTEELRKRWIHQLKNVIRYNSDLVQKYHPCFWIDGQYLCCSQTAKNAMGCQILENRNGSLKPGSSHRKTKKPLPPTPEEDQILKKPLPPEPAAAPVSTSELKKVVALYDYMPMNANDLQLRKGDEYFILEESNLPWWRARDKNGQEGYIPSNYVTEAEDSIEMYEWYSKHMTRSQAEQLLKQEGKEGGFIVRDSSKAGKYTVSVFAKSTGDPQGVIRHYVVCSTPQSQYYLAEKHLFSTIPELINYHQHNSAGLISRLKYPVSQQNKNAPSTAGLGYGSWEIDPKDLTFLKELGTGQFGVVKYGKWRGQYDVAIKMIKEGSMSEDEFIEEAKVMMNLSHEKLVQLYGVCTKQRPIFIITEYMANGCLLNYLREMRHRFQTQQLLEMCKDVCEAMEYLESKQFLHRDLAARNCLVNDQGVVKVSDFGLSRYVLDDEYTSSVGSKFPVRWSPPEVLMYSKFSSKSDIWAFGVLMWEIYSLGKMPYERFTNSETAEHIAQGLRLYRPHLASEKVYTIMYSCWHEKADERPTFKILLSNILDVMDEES

Compound | IC50 [nM]
O=C(NCc1ccc(-c2ncnc3[nH]ccc23)cc1)c1cn2c(n1)CCCC2 [Example I-64, N-(4-(7H-pyrrolo[2,3-d]pyrimidin-4-yl)benzyl)-5,6,7,8-tetrahydroimidazo[1,2-a]pyridine-2-carboxamide] | > 10000
CC(C)(C)c1ccc(C(=O)NC2CCCc3cc(-c4ncnc5[nH]ccc45)ccc32)cc1 (stereo not shown) [Example I-14, N-(6-(7H-pyrrolo[2,3-d]pyrimidin-4-yl)-1,2,3,4-tetrahydronaphthalen-1-yl)-4-(tert-butyl)benzamide] | 10 to 99
O=C(N[C@@H]1CCCc2cc(-c3ncnc4[nH]ncc34)ccc21)[C@H]1CC[C@H](C(F)(F)F)CC1 [Example I-105, trans-N—((R)-6-(1H-pyrazolo[3,4-d]pyrimidin-4-yl)-1,2,3,4-tetrahydronaphthalen-1-yl)-4-(trifluoromethyl)cyclohexanecarboxamide] | 100 to 999
Cn1cc(-c2cc3c(-c4ccc5c(c4)CCCCC5NC(=O)N4CC(OC(C)(C)C)C4)ncnc3[nH]2)cn1 (stereo not shown) [Example I-164, 3-(tert-butoxy)-N-(2-(6-(1-methyl-1H-pyrazol-4-yl)-7H-pyrrolo[2,3-d]pyrimidin-4-yl)-6,7,8,9-tetrahydro-5H-benzo[7]annulen-5-yl)azetidine-1-carboxamide] | < 10
CC(C)(C)c1ccc(C(=O)NC2COCc3cc(-c4ncnc5[nH]ccc45)ccc32)nc1 (stereo not shown) [Example I-82, N-(7-(7H-pyrrolo[2,3-d]pyrimidin-4-yl)isochroman-4-yl)-5-(tert-butyl)picolinamide] | 100 to 999
Cc1cc(-c2ncnc3[nH]ccc23)ccc1C(C)NC(=O)c1nc2c(s1)CCCC2 (stereo not shown) [Example I-77, N-(1-(2-methyl-4-(7H-pyrrolo[2,3-d]pyrimidin-4-yl)phenyl)ethyl)-4,5,6,7-tetrahydrobenzo[d]thiazole-2-carboxamide] | < 10
O=C(NC1CCCc2cc(-c3ncnc4[nH]ncc34)ccc21)c1nc2ccccc2s1 (stereo not shown) [Example I-106, N-(6-(1H-pyrazolo[3,4-d]pyrimidin-4-yl)-1,2,3,4-tetrahydronaphthalen-1-yl)benzo[d]thiazole-2-carboxamide] | 10 to 99
O=c1c2c(F)cc(C3CC3)cc2ccn1C1CCCc2cc(-c3ncnc4[nH]ncc34)ccc21 (stereo not shown) [Example I-138, 2-(6-(1H-pyrazolo[3,4-d]pyrimidin-4-yl)-1,2,3,4-tetrahydronaphthalen-1-yl)-6-cyclopropyl-8-fluoroisoquinolin-1(2H)-one] | 10 to 99
Cc1cc(-c2ncnc3cc[nH]c23)ccc1C(C)NC(=O)c1cnc(C(C)(C)C)s1 (stereo not shown) [Example I-134, 2-(tert-butyl)-N-(1-(2-methyl-4-(5H-pyrrolo[3,2-d]pyrimidin-4-yl)phenyl)ethyl)thiazole-5-carboxamide] | 10 to 99
Cc1cc(-c2ncnc3[nH]c(-c4cnn(C)c4)cc23)ccc1CNC(=O)c1cc2c(s1)CCOC2 [Example I-33, N-(2-methyl-4-(6-(1-methyl-1H-pyrazol-4-yl)-7H-pyrrolo[2,3-d]pyrimidin-4-yl)benzyl)-6,7-dihydro-4H-thieno[3,2-c]pyran-2-carboxamide] | < 10
O=C(NC1CCCc2cc(-c3ncnc4[nH]ncc34)ccc21)c1nc2c(s1)CCC2 (stereo not shown) [Example I-130, N-(6-(1H-pyrazolo[3,4-d]pyrimidin-4-yl)-1,2,3,4-tetrahydronaphthalen-1-yl)-5,6-dihydro-4H-cyclopenta[d]thiazole-2-carboxamide] | 10 to 99
Cn1cc(-c2cc3c(-c4ccc5c(c4)CCCC5NC(=O)N4CC(OC(C)(C)C)C4)ncnc3[nH]2)cn1 (stereo not shown) [Example I-159, 3-(tert-butoxy)-N-(6-(6-(1-methyl-1H-pyrazol-4-yl)-7H-pyrrolo[2,3-d]pyrimidin-4-yl)-1,2,3,4-tetrahydronaphthalen-1-yl)azetidine-1-carboxamide] | < 10
CC(C)(C)C1CCC(C(=O)NC2CCCc3cc(-c4ncnc5[nH]ncc45)ccc32)CC1 (stereo not shown) [Example I-104, N-(6-(1H-pyrazolo[3,4-d]pyrimidin-4-yl)-1,2,3,4-tetrahydronaphthalen-1-yl)-4-(tert-butyl)cyclohexanecarboxamide] | 100 to 999
CC(C)(C)c1ccc(C(=O)NC2CCCc3cc(-c4ncnc5[nH]ncc45)ccc32)cc1 (stereo not shown) [Example I-88, N-(6-(1H-pyrazolo[3,4-d]pyrimidin-4-yl)-1,2,3,4-tetrahydronaphthalen-1-yl)-4-(tert-butyl)benzamide] | 10 to 99
CC(C)(C)c1nnc(C(=O)NC2CCCc3cc(-c4ncnc5[nH]ncc45)ccc32)s1 (stereo not shown) [Example I-103, N-(6-(1H-pyrazolo[3,4-d]pyrimidin-4-yl)-1,2,3,4-tetrahydronaphthalen-1-yl)-5-(tert-butyl)-1,3,4-thiadiazole-2-carboxamide] | 100 to 999
Cc1cc(-c2ccnc3[nH]ncc23)ncc1CNC(=O)c1cc2c(s1)CCCC2 [Example I-117, N-((4-methyl-6-(1H-pyrazolo[3,4-b]pyridin-4-yl)pyridin-3-yl)methyl)-4,5,6,7-tetrahydrobenzo[b]thiophene-2-carboxamide] | < 10
O=C(NC(CO)c1ccc(-c2ncnc3[nH]ncc23)cc1)c1cc2c(s1)CCCC2 (stereo not shown) [Example I-132, N-(1-(4-(1H-pyrazolo[3,4-d]pyrimidin-4-yl)phenyl)-2-hydroxyethyl)-4,5,6,7-tetrahydrobenzo[b]thiophene-2-carboxamide] | 10 to 99

Compound | IC50 [nM]
CCc1cc(-c2ncnc3[nH]ccc23)ccc1CNC(=O)c1ccc(C(C)(C)C)cn1 [Example I-11, 5-(tert-butyl)-N-(2-ethyl-4-(7H-pyrrolo[2,3-d]pyrimidin-4-yl)benzyl)picolinamide] | < 10
Cc1cc(-c2ncnc3[nH]ncc23)ccc1C(C)NC(=O)c1cc2c(s1)CCCC2 (stereo not shown) [Example I-121, N-(1-(2-methyl-4-(1H-pyrazolo[3,4-d]pyrimidin-4-yl)phenyl)ethyl)-4,5,6,7-tetrahydrobenzo[b]thiophene-2-carboxamide] | < 10
Cc1cc(-c2ccnc3[nH]ncc23)cnc1CNC(=O)c1cc2c(s1)CCCC2 [Example I-139, N-((3-methyl-5-(1H-pyrazolo[3,4-b]pyridin-4-yl)pyridin-2-yl)methyl)-4,5,6,7-tetrahydrobenzo[b]thiophene-2-carboxamide] | 10 to 99
CC(C)(C)c1ncc(C(=O)N[C@@H]2CCCc3cc(-c4ccnc5[nH]ncc45)cnc32)s1 [Example I-144, (R)—N-(3-(1H-pyrazolo[3,4-b]pyridin-4-yl)-5,6,7,8-tetrahydroquinolin-8-yl)-2-(tert-butyl)thiazole-5-carboxamide] | 100 to 999
Cc1cc(-c2ncnc3cc[nH]c23)cnc1CNC(=O)c1cc2c(s1)CCCC2 [Example I-140, N-((3-methyl-5-(5H-pyrrolo[3,2-d]pyrimidin-4-yl)pyridin-2-yl)methyl)-4,5,6,7-tetrahydrobenzo[b]thiophene-2-carboxamide] | 100 to 999
Cc1cc(-c2ncnc3nc(N4CCN(C)CC4)sc23)ccc1CNC(=O)c1cnc(C(C)(C)C)s1 [Example I-133, 2-(tert-butyl)-N-(2-methyl-4-(2-(4-methylpiperazin-1-yl)thiazolo[4,5-d]pyrimidin-7-yl)benzyl)thiazole-5-carboxamide] | 10 to 99
CC(C)OC1CN(C(=O)NC2CCCCc3cc(-c4ncnc5[nH]c(-c6cnn(C)c6)cc45)ccc32)C1 (stereo not shown) [Example I-163, 3-isopropoxy-N-(2-(6-(1-methyl-1H-pyrazol-4-yl)-7H-pyrrolo[2,3-d]pyrimidin-4-yl)-6,7,8,9-tetrahydro-5H-benzo[7]annulen-5-yl)azetidine-1-carboxamide] | < 10
O=C(NC1CCCc2cc(-c3ncnc4[nH]ncc34)ccc21)c1ccc(Cl)c(F)c1 (stereo not shown) [Example I-90, N-(6-(1H-pyrazolo[3,4-d]pyrimidin-4-yl)-1,2,3,4-tetrahydronaphthalen-1-yl)-4-chloro-3-fluorobenzamide] | 100 to 999
CC(NC(=O)c1nc2c(s1)CCCC2)c1ccc(-c2ncnc3[nH]ccc23)cc1C(F)(F)F (stereo not shown) [Example I-79, N-(1-(4-(7H-pyrrolo[2,3-d]pyrimidin-4-yl)-2-(trifluoromethyl)phenyl)ethyl)-4,5,6,7-tetrahydrobenzo[d]thiazole-2-carboxamide] | 10 to 99
Cc1cc(-c2ncnc3nc(N4CC(N(C)C)C4)[nH]c23)ccc1CNC(=O)c1cnc(C(C)(C)C)s1 [Example I-53, 2-(tert-butyl)-N-(4-(8-(3-(dimethylamino)azetidin-1-yl)-7H-purin-6-yl)-2-methylbenzyl)thiazole-5-carboxamide] | < 10
CC(C)(C)c1ccc(C(=O)NCc2ccc(-c3ncnc4[nH]ncc34)cc2)cc1 [Example I-84, N-(4-(1H-pyrazolo[3,4-d]pyrimidin-4-yl)benzyl)-4-(tert-butyl)benzamide] | 100 to 999
Cc1cc(CNC(=O)c2ccc(C(C)(C)C)cc2)ccc1-c1ncnc2[nH]ccc12 [Compound I-148] | 1000 to 10000
CC(C)(C)c1ccc(C(=O)NCc2ccc(-c3ncnc4[nH]ccc34)cn2)nc1 [Example I-70] | 100 to 999
O=C(NC1CCCc2cc(-c3ncnc4[nH]ncc34)ccc21)c1nc2c(s1)CCCC2 (stereo not shown) [Example I-137, N-(6-(1H-pyrazolo[3,4-d]pyrimidin-4-yl)-1,2,3,4-tetrahydronaphthalen-1-yl)-4,5,6,7-tetrahydrobenzo[d]thiazole-2-carboxamide] | 10 to 99
Cc1cc(-c2ncnc3nc(C4CCN(C)CC4)[nH]c23)ccc1CNC(=O)c1cnc(C(C)(C)C)s1 [Example I-54, 2-(tert-butyl)-N-(2-methyl-4-(8-(1-methylpiperidin-4-yl)-7H-purin-6-yl)benzyl)thiazole-5-carboxamide] | 100 to 999
O=C(NC1CCCc2cc(-c3ncnc4[nH]ncc34)ccc21)c1ccc(C(F)(F)F)c(F)c1 (stereo not shown) [Example I-91, N-(6-(1H-pyrazolo[3,4-d]pyrimidin-4-yl)-1,2,3,4-tetrahydronaphthalen-1-yl)-3-fluoro-4-(trifluoromethyl)benzamide] | 10 to 99
O=C(NCc1ccc(-c2ncnc3[nH]ccc23)cc1)N1Cc2ccccc2C1 [Example I-69, N-(4-(7H-pyrrolo[2,3-d]pyrimidin-4-yl)benzyl)isoindoline-2-carboxamide] | 10 to 99
